Results as given in patent US8048872B2, “Treatment of hyperproliferative diseases with vinca alkaloid N-oxide and analogs” (Stat of Oregon Acting by and Through The Oregon State Board …, priority 2006, dated 2011).
Where “and” joins values, the source holds several entries; their conditions need not be identical. Equal values may be shown once. Read-outs that look alike come from different tables or passages of the source.

Assays:
[1] = test system: human HT29 colorectal adenocarcinoma; design: species or system mouse; conditions: in vivo, ip, 100 mg/kg
[2] = cited from earlier work
[3] = test system: metastatic cancer of the colon or rectum; conditions: 350 mg/m^2 30-minute iv infusion once every 3 weeks; 132 previously treated patients; cited from earlier work
[4] = in vivo; conditions: B6D2F1, mouse, in vivo, iv
Method: (§1) For example, B6D2F1 mice (n=8/group) were inoculated subcutaneously (sc) in the right flank with 1×10^6 murine L1210 leukemic tumor cells. […] Test agents were administered on multiple treatment regimen (q3d×5) to yield optimal dose schedule benefit. Vehicle control treated mice served as the negative control group; mice treated with the bioreduced parent compounds, vincristine and vinblastine, dosed at their […] (MTDs), served as the positive control groups. Tumors were measured with calipers twice weekly and tumor volume calculated using the formula: Tumor Volume (mm^3)=((width)^2×length)/2. Animals were monitored for signs of toxicity and weighed daily for the first 5 days of the study and then twice-weekly until the study end. As pre-defined in the protocol, each animal was actively euthanized when its tumor reached the pre-determined endpoint size of 2000 mm^3 or at the conclusion of the study (day 37) whichever came first. The time to endpoint (TTE) was calculated for each mouse as TTE (days)=(log10(endpoint volume mm^3)−b)/m where b is the intercept and m is the slope of the line obtained by linear regression of a log-transformed tumor growth data set. Treatment outcome was determined from tumor growth delay (TGD) which is defined as the increase in median TTE in a treatment (T) group as compared to the control (C) group (TGD=T−C) expressed in days or as a percentage of the median TTE of the control group % TGD=((T−C)/C)×100. […] Statistical significance between the treated vs. control groups was evaluated by logrank analysis.

[5] = test system: murine L1210 leukemic tumor cells; assay: in vivo; conditions: L1210
Method: as §1

[6] = test system: murine P388 leukemic tumor cells; assay: in vivo; conditions: P388
Method: as §1
(§2) This model was developed by subcutaneously inoculating B6D2F1 mice (n=8/group) with 1×10^6 murine P388 leukemic tumor cells using similar methodology to that described above for L1210. […] Agents were administered on multiple treatment regimen (q3d×5) to yield optimal dose schedule benefit. Efficacy of treatment with the N-oxide analogs was determined by Tumor Growth Delay (TGD) and Kaplan-Meier survival analysis as described for L1210, the exception being that the conclusion of the study was day 45 or the predefined endpoint size of 2000 mm^3 whichever came first. Vehicle control treated mice served as the negative control group; mice treated with the standard agents, vincristine and vinblastine, dosed at their MTDs, served as the positive control groups.

[7] = in vivo; conditions: female, nude, mouse, iv
Method: In one example, female nude mice (n=10) were inoculated subcutaneously with 15×10^6 human K562 myelogenous leukemia cells in a 1:1 ratio with matrigel on the right flank. Tumor volumes were monitored and calculated using the formula: Tumor volume=(a^2×b/2) where ‘a’ is the smallest diameter and ‘b’ is the largest diameter. Once the established tumors reached approximately 75-150 mm^3 (individual tumor volumes may range from […]) the mice were assigned to the various vehicle control and treatment groups such that the mean tumor volumes in the treated groups were within 10% of the mean tumor weight in the vehicle control group. On the same day (day 1) and days 4, 7, 10, and 13, vinca-alkaloid N-oxide analogs (VCR-NO, VBL-NO) were administered intravenously according to a q3d×5 schedule. Mice were also treated with vehicle (negative control) and the standard agents, vinblastine and vincristine (positive controls). Tumor volumes were recorded three times a week starting when tumors were palpable and including the day of study termination. Animals were monitored for signs of toxicity and body weights were recorded twice a week starting on the first day of treatment and including the day of study termination. […] The mean day of sacrifice were calculated to determine the tumor growth delay and tumor growth inhibition effects of each test article as compared to vehicle control. […] Statistical significance between the treated vs. control groups was evaluated by logrank analysis.

[8] = test system: human H460 lung adenocarcinoma
Method: (§3) Tumor cell line were cultured in DMEM-10% FBS under standard conditions. One-hundred mm plastic culture dishes were seeded with 1×10^6 tumor cells and treated with vinca alkaloids or N-oxide analogs at a dose range of 0.01-100 nM. Cells were exposed with gentle rocking to a constant level of low oxygen (0.2% O2-5% CO2-balance N2) in a hypoxia apparatus (INVIVO2400 Hypoxia Workstation, Ruskin Technology) for 14 hr at 37° C. Identically treated cells were incubated under normoxia (air-5% CO2) at 37° C. Cells were harvested and replated in fresh medium at a density of 1×10^3 cells/well in 48-well plastic culture plates to assess viability 24-72 hr later. Briefly, Alamar Blue was added to replicate wells on Day 0 and Day 3, and cells were incubated for a further 3-6 hr at 37° C. before fluorescence readings using a plate reader (530-560 nm excitation, 590 emission). The percent inhibition of proliferation was calculated and plotted against control-treated cells at each drug concentration. […] The Hypoxia Cytotoxicity Ratio (HCR) was determined as the ratio of the IC50 of the compound under normoxic conditions vs. hypoxic conditions.

[9] = test system: human H460 lung adenocarcinoma; assay: cells; conditions: NCI-H460, 14 h
Method: as §3

[10] = in vivo; conditions: B6D2F1, mouse, in vivo, iv; remark: listed apart in the source
Method: as §1, §2

[11] = in vivo; conditions: female, nude, mouse, iv; remark: listed apart in the source
[12] = 0.6-1 mg/kg iv q3d×5; during the course of treatment
Method: Body weights were monitored twice weekly and up to 2 weeks following treatment. Mice were also injected iv with 0.6 or 1 mg/kg vincristine using the same q3d×5 schedule as a positive control.

[13] = Formation of clear solution in aqueous vehicles; assay type: physicochemical; conditions: de-ionized water and 5% dextrose/water solutions
[14] = Grade III-IV, Naïve pts (n = 48)
[15] = Grade III-IV, Pre-treated patients (n = 165)
[16] = non-Hodgkin's lymphoma, 9 mcg/kg/d IV days 1-5, every 21 days
[17] = non-Hodgkin's lymphoma, 9 or 18 mcg/kg/d IV days 1-5, every 21 days, Grade III-IV
[18] = non-Hodgkin's lymphoma, 18 mcg/kg/d IV days 1-5, every 21 days

## CCc1c2c(nc3ccc(OC(=O)N4CCC(N5CCCCC5)CC4)cc13)-c1cc3c(c(=O)n1C2)COC(=O)[C@]3(O)CC [CPT-11, 7-ethyl-10[4-(1-piperidino)-1-piperidino]carbonyloxycamptothecin, reference compound]
[1]
  Tumor Growth Delay: 60%
[2]; [14]
  Alopecia: Alopecia 54%
  Delayed Diarrhea: Delayed Diarrhea 35%
  Nausea/Vomiting: Nausea/Vomiting 13%
  Thrombocytopenia: Thrombocytopenia 2%
[2]; Grade III-IV, Naïve pts
  Leukopenia/Neutropenia Toxicity: 48%
[2]; [15]
  Alopecia: Alopecia 53%
  Delayed Diarrhea: Delayed Diarrhea 39%
  Nausea/Vomiting: Nausea/Vomiting 22%
  Thrombocytopenia: Thrombocytopenia 3%
[2]; Grade III-IV, Pretreated pts
  Leukopenia/Neutropenia Toxicity: 47%
[2]; Grade III-IV
  Documented Infection: 5%
  Neutropenic Fever: Neutropenic Fever 14%
[2]; Naïve pts (n = 48)
  Anemia Grade III-IV: 8%
[2]; Pre-treated patients (n = 165)
  Anemia Grade III-IV: 10%
[3]
  intent-to-treat response rate: 12.1%

## CC[C@]1(O)C[C@@H]2CN(CCc3c([nH]c4ccccc34)[C@@](C(=O)OC)(c3cc4c(cc3OC)N(C)[C@H]3[C@@](O)(C(=O)OC)[C@H](OC(C)=O)[C@]5(CC)C=CCN6CC[C@]43[C@@H]65)C2)C1 [Vinblastine, vinblastine]
[4]
  MTD: 5 mg/kg
[5]; 5 mg/kg i.v. q3d×5
  Median Survival: 24.3 days
  Tumor Growth Delay: 34%
4 mg/kg ip q3d×5
  median day of death: 10.8 days
6 mg/kg ip q3d×5
  median day of death: 9.8 days
[6]; 5 mg/kg i.v. q3d×5
  Median Survival: 30.8 days
  Tumor Growth Delay: 149%
[7]
  MTD: 2.5 mg/kg
[8]
  Hypoxia Cytotoxicity Ratio (HCR): 1
[9]; read-out: IC50 Air
  IC50: 0.02 µM
[9]; read-out: IC50 Hypoxia
  IC50: 0.017 µM

## CC[C@]1(O)C[C@H]2CN(CCc3c([nH]c4ccccc34)[C@@](C(=O)OC)(c3cc4c(cc3OC)N(C=O)[C@H]3[C@@](O)(C(=O)OC)[C@H](OC(C)=O)[C@]5(CC)C=CCN6CC[C@]43[C@@H]65)C2)C1 [Vincristine, vincristine]
[4]
  MTD: 1 mg/kg
[5]; 1 mg/kg i.v. q3d×5
  Median Survival: 19.6 days
  Tumor Growth Delay: 8%
[6]; 1 mg/kg i.v. q3d×5
  Median Survival: 20.8 days
  Tumor Growth Delay: 54%
[10]
  MTD: 1 mg/kg
[7]
  MTD: 1.5 mg/kg
[8]
  Hypoxia Cytotoxicity Ratio (HCR): 1.1
[11]
  MTD: 1.5 mg/kg
[12]
  body weight loss: significant body weight loss
[9]; read-out: IC50 Air
  IC50: 0.017 µM
[9]; read-out: IC50 Hypoxia
  IC50: 0.015 µM

## Arsenic trioxide
[2]; Grade III-IV
  Anemia Grade III-IV: Anemia Grade III-IV 5%
  Arthralgia/Myalgia: Arthralgia/Mylagia 13%
  Convulsions: Convulsions 5%
  Disseminated Intravascular Coagulation: 8%
  Dyspnea: Dyspnea 10%
  Febrile Neutropenia: Febrile Neutropenia 8%
  Fever: Fever 5%
  Hyperglycemia: Hyperglycemia 13%
  Hypokalemia: Hypokalemia 13%
  Hypomagnesemia: Hypomagnesemia 13%
  Hypoxia: Hypoxia 10%
  Leukocytosis: Leukocytosis 3%
  Neutropenia: 10%
  Paresthesias: Paresthesias 5%
  Sepsis: Sepsis 5%
  Thrombocytopenia: Thrombocytopenia 12%

## Denileukin diftitox
[2]; [16]
  Leukopenia: Leukopenia 6%
  Neutropenia: Neutropenia 3%
[2]; [17]
  Constitutional Symptoms: Symptoms 37-47%
  Gastrointestinal: Gastrointestinal 20-36%
  Infection: Infection 33-43%
  Infusion-Related Events: Back Pain: Back Pain 6-11%
  Infusion-Related Events: Chest Pain/Tightness: Tightness 9%
  Infusion-Related Events: Dyspnea: Dyspnea 6-11%
  Infusion-Related Events: Hypotension: Hypotension 8-11%
  Infusion-Related Events: Pruritis: Pruritis 6%
  Infusion-Related Events: Vasodilation: Vasodilation 3%
  Rash: Rash 19-23%
  Right Heart Failure: Right Heart Failure 3-6%
  Thrombotic Events: Thrombotic Events 3-8%
  Vascular Leak Syndrome: Syndrome 17-25%
[2]; [18]
  Leukopenia: Leukopenia 3%
  Neutropenia: Neutropenia 3%

## Gemcitabine + Cisplatin
[2]; Grade III-IV
  Anemia Grade III-IV: 25% and 27%
  Cardiac Dysrhythmia: 2.8%
  Dyspnea: Dyspnea 7%
  Elevated Creatinine: Elevated Creatinine 4.8%
  Nausea: Nausea 27%
  Neurohearing: Neurohearing 6%
  Neutropenic Sepsis: Neutropenic Sepsis 1%
  Pulmonary: Pulmonary 3%
  Vomiting: Vomiting 23%
[2]; Grade III
  Alopecia: 10.5%
  Diarrhea: Diarrhea (Grade III) 3%
  Granulocytopenia: Grade III 21.7%
  Hematuria: 4.5%
  Nausea/Vomiting: (Grade III) 22%
  Neuromotor: 11.5%
  Neutropenia: 41.2%
[2]; Grade IV
  Granulocytopenia: Grade IV 35.3%
  Neutropenia: 29.9%

## Liposomal doxorubicin
[2]; human, in vivo, iv
  Anemia Grade III-IV: 9.8%
  Leukopenia: Leukopenia 36%
  Mucositis: Mucositis 5%
  Nausea/Vomiting: Nausea/Vomiting 15%
  Neutropenia Grade IV: Grade IV 6%
  Neutropenic Fever: Neutropenic Fever 11%
  Palmar-Plantar Erythrodysesthesia: Erythrodysesthesia 29%
  Peripheral Neuropathy: 6%
  Stomatitis: Stomatitis 14%
  Thrombocytopenia: Thrombocytopenia 3%

## Vinblastine N-Oxide Dihydrochloride
[13]
  forms a stable clear solution at: about 20 mg/mL

## gemtuzumab: Mylotarg, Wyeth-Ayerst [reference compound]
[2]; Grade III-IV
  Anemia Grade III-IV: 47%
  Chills: Chills 13%
  Dyspnea: Dyspnea 9%
  Fever: Fever 15%
  Hyperbilirubinemia: Hyperbilirubinemia 23%
  Hyperglycemia: Hyperglycemia 12%
  Leukopenia: 96%
  Nausea: Nausea 9%
  Neutropenia: 98%
  Neutropenic Fever: Neutropenic Fever 7%
  Pneumonia: Pneumonia 7%
  Sepsis: Sepsis 16%
  Thrombocytopenia: Thrombocytopenia 99%
[2]; acute myelogenous patients, 9 mg/m^2 IV, two doses 14 days apart
  patients with grade III or IV pneumonia: 7%
